{"source": "patent US20100041597A1", "about": "“PEPTIDES TARGETED TO PROTEIN KINASE C ISOFORMS AND USES THEREOF” (priority 2005, published 2010)", "key": {"PKC-β": {"test_system": "PKC-β", "assay": "In vitro competition with anti-PKC-β antibody, Protocol A, IMR-32 cells", "type": "binding, human", "conditions": "for Band Intensity / Inhibition (%) / Relative Intensity (%): PKC-β, IMR-32, Table 6", "protocol": "(§1) Cell lysates from either IMR-32 (human neuroblastoma) cells or C6Cx43 cells (rat glioma transfected cells overexpressing connexin 43) were obtained using standard protocols and the proteins of the lysate were separated by SDS PAGE electrophoresis and electrotransferred onto a nitrocellulose membrane. The membrane was incubated for 30 minutes in blocking buffer (TBST) containing the test peptide at either 5× or 20× the concentrations of the primary antibody. A primary polyclonal antibody specific for PKC-α (Santa Cruz Biotechnology, Inc., CA) was then added (15 μg/ml) and the membrane incubated for a further 45 minutes. Finally, the primary antibody was detected with a secondary antibody conjugated to alkaline phosphatase using standard procedures. The intensity of the band corresponding to PKC-α was assessed by scanning and densitometry using the Gel-Pro software (Media Cybernetics) to obtain relative band intensities (average of 3 replicas). Control assays were conducted as described above except that blocking buffer without peptide was used.\nPeptides PRE 1, PRE 2 and PRE 3 (see Table 3) were tested for their ability to interfere with the binding of a PKC-β-specific polyclonal antibody (Santa Cruz Biotechnology, Inc.) to PKC-β using the general protocol described in Example 1. […] It is worth noting in this regard that PKC-α and PKC-β belong to the same sub-group of PKCs (cPKCs)."}, "PKC-βI": {"molecular_target": "PKC-βI (Homo sapiens, UniProt P05771)", "sequence (P05771 whole entry)": "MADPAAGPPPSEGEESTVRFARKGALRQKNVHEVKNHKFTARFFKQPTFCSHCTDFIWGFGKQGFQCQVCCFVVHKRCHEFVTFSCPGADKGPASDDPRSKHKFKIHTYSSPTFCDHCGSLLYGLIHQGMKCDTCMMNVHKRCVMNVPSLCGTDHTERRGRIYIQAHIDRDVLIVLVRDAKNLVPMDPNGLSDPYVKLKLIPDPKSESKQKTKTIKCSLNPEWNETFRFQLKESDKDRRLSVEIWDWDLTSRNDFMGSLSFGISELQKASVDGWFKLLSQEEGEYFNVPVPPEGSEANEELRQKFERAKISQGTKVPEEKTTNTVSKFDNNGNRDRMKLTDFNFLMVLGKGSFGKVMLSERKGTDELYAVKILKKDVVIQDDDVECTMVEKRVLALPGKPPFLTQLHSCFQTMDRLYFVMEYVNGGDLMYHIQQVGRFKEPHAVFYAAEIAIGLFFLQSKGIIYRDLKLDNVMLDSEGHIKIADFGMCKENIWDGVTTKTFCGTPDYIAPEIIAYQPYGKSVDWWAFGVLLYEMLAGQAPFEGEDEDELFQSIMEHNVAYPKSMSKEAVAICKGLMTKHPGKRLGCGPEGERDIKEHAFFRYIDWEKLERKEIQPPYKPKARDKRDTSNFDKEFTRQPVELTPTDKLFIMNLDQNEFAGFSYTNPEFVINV", "assay": "In vitro competition with anti-PKC-βI antibody, Protocol B, IMR-32 cells", "type": "binding", "parameters": "PRE 3 and PRE 4 in IMR-32 Neuroblastoma Cells: Protocol B; endogenous in cells; host or cells: IMR-32", "conditions": "PKC-βI; for Band Intensity: control band intensity 170.5, Table 9", "protocol": "The ability of the peptides PRE 2 and PRE 3 (see Table 3) to interfere with the binding of a PKC-α-specific polyclonal antibody (Santa Cruz Biotechnology, Inc.) to PKC-α was determined using a modified version of the protocol outlined above in which the test peptide was added directly to the cell extract prior to electrophoresis at a concentration of either 5× or 15× the concentration of the protein applied to each well of the gel for the Western blots (20 μg).\n(§2) Peptides PRE 3 and PRE 4 (see Table 3) were tested for their ability to interfere with the binding of isoform-specific polyclonal antibodies (Santa Cruz Biotechnology, Inc.) to PKC-α, PKC-βI or PKC-βII using the general protocol described in Example 3."}, "PKC-βII": {"molecular_target": "PKC-βII (Homo sapiens, UniProt P05771)", "sequence (P05771 1-673 isoform P05771-2)": "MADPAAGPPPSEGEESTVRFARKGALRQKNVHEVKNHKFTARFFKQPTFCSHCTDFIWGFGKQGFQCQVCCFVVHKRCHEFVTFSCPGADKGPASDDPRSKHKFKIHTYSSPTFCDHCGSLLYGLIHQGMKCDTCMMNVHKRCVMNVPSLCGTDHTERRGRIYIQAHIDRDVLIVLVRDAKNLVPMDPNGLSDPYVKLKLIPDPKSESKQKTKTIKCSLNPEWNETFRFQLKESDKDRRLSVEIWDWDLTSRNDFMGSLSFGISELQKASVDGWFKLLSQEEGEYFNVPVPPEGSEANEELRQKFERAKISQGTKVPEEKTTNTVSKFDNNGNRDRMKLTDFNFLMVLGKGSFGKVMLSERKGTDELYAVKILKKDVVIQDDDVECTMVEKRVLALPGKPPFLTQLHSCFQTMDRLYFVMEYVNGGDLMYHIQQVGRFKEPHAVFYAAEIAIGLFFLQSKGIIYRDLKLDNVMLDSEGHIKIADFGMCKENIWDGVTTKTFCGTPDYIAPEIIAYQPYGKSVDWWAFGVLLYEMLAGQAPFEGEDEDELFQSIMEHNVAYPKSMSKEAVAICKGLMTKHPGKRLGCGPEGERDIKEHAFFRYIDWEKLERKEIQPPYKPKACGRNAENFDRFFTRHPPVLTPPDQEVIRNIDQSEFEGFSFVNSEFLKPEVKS", "assay": "In vitro competition with anti-PKC-βII antibody, Protocol B, IMR-32 cells", "type": "binding", "parameters": "PRE 3 and PRE 4 in IMR-32 Neuroblastoma Cells: Protocol B; endogenous in cells; host or cells: IMR-32", "conditions": "PKC-βII; for Band Intensity: control band intensity 98.6, Table 9", "protocol": "as §2"}, "PKC-α [1]": {"molecular_target": "T1, PKC-α (Homo sapiens, UniProt P17252)", "assay": "In vitro competition with anti-PKC-α antibody on blotted cell lysate, Protocol A, IMR-32 cells", "type": "binding", "parameters": "subcellular localisation of endogenous PKC-α in IMR-32 cells; endogenous in cells; host or cells: IMR-32", "protocol": "The ability of the peptides to interfere with the binding of a PKC-α-specific monoclonal antibody to PKC-α was determined using the following protocol.\nas §1, with “The membrane was incubated for 30 minutes in blocking buffer (TBST) containing the test peptide at either 5× or 20× the concentrations of the primary antibody.” left out\nThe results are expressed as relative band intensity and as a percentage of the intensity of the corresponding band in the control assay (“Relative intensity (%)”). “% inhibition” relates to the percentage of the PKC-α band that is inaccessible to the antibody."}, "PKC-α [2]": {"molecular_target": "T1, PKC-α", "assay": "In vitro competition with anti-PKC-α antibody, Protocol B (peptide added to cell extract before electrophoresis), IMR-32 cells", "type": "binding", "parameters": "subcellular localisation of endogenous PKC-α in IMR-32 cells; endogenous in cells; host or cells: IMR-32", "conditions": "for Inhibition (%) / Relative Intensity (%): Table 9", "protocol": "as §2"}, "[3]": {"conditions": "100 μg, Table 9, read-out: Relative Intensity (%)"}, "[4]": {"conditions": "200 μg, Table 9, read-out: Relative Intensity (%)"}, "[5]": {"conditions": "300 μg, Table 9, read-out: Relative Intensity (%)"}}}
{"substance": "Ac-AKGIQEVKGGDAQNLIGISI-NH2 [PRE 3]", "values": [{"measurement": "effect on antibody binding to PKC-β", "setting": "PKC-β", "result": "did not show an effect on antibody binding to PKC-β"}, {"measurement": "Band Intensity", "setting": "PKC-β; 75 μg", "result": 1.900}, {"measurement": "Inhibition (%)", "setting": "PKC-β; 75 μg", "result": 0.0, "unit": "%"}, {"measurement": "Relative Intensity (%)", "setting": "PKC-β; 75 μg", "result": 102.4, "unit": "%"}, {"measurement": "Band Intensity", "setting": "PKC-β; 300 μg", "result": 1.900}, {"measurement": "Inhibition (%)", "setting": "PKC-β; 300 μg", "result": 0.0, "unit": "%"}, {"measurement": "Relative Intensity (%)", "setting": "PKC-β; 300 μg", "result": 102.4, "unit": "%"}, {"measurement": "Band Intensity", "setting": "PKC-β; 600 μg", "result": 1.847}, {"measurement": "Inhibition (%)", "setting": "PKC-β; 600 μg", "result": 0.0, "unit": "%"}, {"measurement": "Relative Intensity (%)", "setting": "PKC-β; 600 μg", "result": 99.6, "unit": "%"}, {"measurement": "inhibition at 0.1 mg", "setting": "PKC-βI; 100 μg, Table 9", "result": 100, "unit": "%"}, {"measurement": "remaining activity at 0.1 mg", "setting": "PKC-βI; [3]", "result": 0, "unit": "%"}, {"measurement": "Band Intensity", "setting": "PKC-βI; 100 μg", "result": 0.0}, {"measurement": "inhibition at 0.2 mg", "setting": "PKC-βI; 200 μg, Table 9", "result": 100, "unit": "%"}, {"measurement": "remaining activity at 0.2 mg", "setting": "PKC-βI; [4]", "result": 0, "unit": "%"}, {"measurement": "Band Intensity", "setting": "PKC-βI; 200 μg", "result": 0.0}, {"measurement": "inhibition at 0.3 mg", "setting": "PKC-βI; 300 μg, Table 9", "result": 100, "unit": "%"}, {"measurement": "remaining activity at 0.3 mg", "setting": "PKC-βI; [5]", "result": 0, "unit": "%"}, {"measurement": "Band Intensity", "setting": "PKC-βI; 300 μg", "result": 0.0}, {"measurement": "inhibition at 0.1 mg", "setting": "PKC-βII; 100 μg, Table 9", "result": 100, "unit": "%"}, {"measurement": "remaining activity at 0.1 mg", "setting": "PKC-βII; [3]", "result": 0, "unit": "%"}, {"measurement": "Band Intensity", "setting": "PKC-βII; 100 μg", "result": 0.0}, {"measurement": "inhibition at 0.2 mg", "setting": "PKC-βII; 200 μg, Table 9", "result": 100, "unit": "%"}, {"measurement": "remaining activity at 0.2 mg", "setting": "PKC-βII; [4]", "result": 0, "unit": "%"}, {"measurement": "Band Intensity", "setting": "PKC-βII; 200 μg", "result": 0.0}, {"measurement": "inhibition at 0.3 mg", "setting": "PKC-βII; 300 μg, Table 9", "result": 100, "unit": "%"}, {"measurement": "remaining activity at 0.3 mg", "setting": "PKC-βII; [5]", "result": 0, "unit": "%"}, {"measurement": "Band Intensity", "setting": "PKC-βII; 300 μg", "result": 0.0}, {"measurement": "Band Intensity", "setting": "PKC-α [1]; 75 μg, IMR-32 Cells, Table 5", "result": 0.889}, {"measurement": "inhibition at 0.075 mg", "setting": "PKC-α [1]; 75 μg, IMR-32 Cells, Table 5", "result": 0.7, "unit": "%"}, {"measurement": "remaining activity at 0.075 mg", "setting": "PKC-α [1]; 75 μg, IMR-32 Cells, Table 5, read-out: Relative Intensity (%)", "result": 99.3, "unit": "%"}, {"measurement": "Band Intensity", "setting": "PKC-α [1]; 300 μg, IMR-32 Cells, Table 5", "result": 0.922}, {"measurement": "inhibition at 0.3 mg", "setting": "PKC-α [1]; 300 μg, IMR-32 Cells, Table 5", "result": 0, "unit": "%"}, {"measurement": "remaining activity at 0.3 mg", "setting": "PKC-α [1]; 300 μg, IMR-32 Cells, Table 5, read-out: Relative Intensity (%)", "result": 103, "unit": "%"}, {"measurement": "Band Intensity", "setting": "PKC-α [1]; 600 μg, IMR-32 Cells, Table 5", "result": 0.888}, {"measurement": "inhibition at 0.6 mg", "setting": "PKC-α [1]; 600 μg, IMR-32 Cells, Table 5", "result": 0, "unit": "%"}, {"measurement": "remaining activity at 0.6 mg", "setting": "PKC-α [1]; 600 μg, IMR-32 Cells, Table 5, read-out: Relative Intensity (%)", "result": 99.2, "unit": "%"}, {"measurement": "Band Intensity", "setting": "PKC-α [1]; 3.75 mg, IMR-32 Cells, Table 5", "result": 0.600}, {"measurement": "remaining activity at 3.75 mg", "setting": "PKC-α [1]; 3.75 mg, IMR-32 Cells, Table 5, read-out: Relative Intensity (%)", "result": 102, "unit": "%"}, {"measurement": "Band Intensity", "setting": "PKC-α [1]; 5.25 mg, IMR-32 Cells, Table 5", "result": 0.603}, {"measurement": "remaining activity at 5.25 mg", "setting": "PKC-α [1]; 5.25 mg, IMR-32 Cells, Table 5, read-out: Relative Intensity (%)", "result": 102, "unit": "%"}, {"measurement": "Band Intensity", "setting": "PKC-α [1]; 7.5 mg, IMR-32 Cells, Table 5", "result": 0.609}, {"measurement": "inhibition at 7.5 mg", "setting": "PKC-α [1]; 7.5 mg, IMR-32 Cells, Table 5", "result": 0, "unit": "%"}, {"measurement": "remaining activity at 7.5 mg", "setting": "PKC-α [1]; 7.5 mg, IMR-32 Cells, Table 5, read-out: Relative Intensity (%)", "result": 103, "unit": "%"}, {"measurement": "effect on antibody binding to PKC-α", "setting": "PKC-α [1]; Protocol A", "result": "did not show an effect on antibody binding"}, {"measurement": "effect on antibody binding to PKC-α", "setting": "PKC-α [2]", "result": "effectively interfered with PKC-α antibody binding to PKC-α"}, {"measurement": "Band Intensity", "setting": "PKC-α [2]; 100 μg, PKC-α, IMR-32, Table 7", "result": 0.0}, {"measurement": "inhibition at 0.1 mg", "setting": "PKC-α [2]; 100 μg, PKC-α, IMR-32, Table 7", "result": 100, "unit": "%"}, {"measurement": "remaining activity at 0.1 mg", "setting": "PKC-α [2]; 100 μg, PKC-α, IMR-32, Table 7, read-out: Relative Intensity (%)", "result": 0, "unit": "%"}, {"measurement": "Inhibition (%)", "setting": "PKC-α [2]; 100 μg, PKC-α", "result": 100.0, "unit": "%"}, {"measurement": "Relative Intensity (%)", "setting": "PKC-α [2]; 100 μg, PKC-α", "result": 0.0, "unit": "%"}, {"measurement": "Band Intensity", "setting": "PKC-α [2]; 100 μg, PKC-α, control band intensity 302.5, Table 9", "result": 0.0}, {"measurement": "Band Intensity", "setting": "PKC-α [2]; 200 μg, PKC-α, IMR-32, Table 7", "result": 0.0}, {"measurement": "inhibition at 0.2 mg", "setting": "PKC-α [2]; 200 μg, PKC-α, IMR-32, Table 7", "result": 100, "unit": "%"}, {"measurement": "remaining activity at 0.2 mg", "setting": "PKC-α [2]; 200 μg, PKC-α, IMR-32, Table 7, read-out: Relative Intensity (%)", "result": 0, "unit": "%"}, {"measurement": "Inhibition (%)", "setting": "PKC-α [2]; 200 μg, PKC-α", "result": 100.0, "unit": "%"}, {"measurement": "Relative Intensity (%)", "setting": "PKC-α [2]; 200 μg, PKC-α", "result": 0.0, "unit": "%"}, {"measurement": "Band Intensity", "setting": "PKC-α [2]; 200 μg, PKC-α, control band intensity 302.5, Table 9", "result": 0.0}, {"measurement": "Band Intensity", "setting": "PKC-α [2]; 300 μg, PKC-α, IMR-32, Table 7", "result": 0.0}, {"measurement": "inhibition at 0.3 mg", "setting": "PKC-α [2]; 300 μg, PKC-α, IMR-32, Table 7", "result": 100, "unit": "%"}, {"measurement": "remaining activity at 0.3 mg", "setting": "PKC-α [2]; 300 μg, PKC-α, IMR-32, Table 7, read-out: Relative Intensity (%)", "result": 0, "unit": "%"}, {"measurement": "Inhibition (%)", "setting": "PKC-α [2]; 300 μg, PKC-α", "result": 100.0, "unit": "%"}, {"measurement": "Relative Intensity (%)", "setting": "PKC-α [2]; 300 μg, PKC-α", "result": 0.0, "unit": "%"}, {"measurement": "Band Intensity", "setting": "PKC-α [2]; 300 μg, PKC-α, control band intensity 302.5, Table 9", "result": 0.0}]}
